Reference: patent US20230000813A1, “COMPOUND FOR THE TREATMENT OF BOVINE OR SWINE RESPIRATORY DISEASE” (Intervet Inc., priority 2016, published 2023)
≈ marks a conversion by molar mass, not a printed value.

How the values were obtained:
Experiment in all cases: MIC, broth-microdilution (CLSI VET01-A4)
Type in all cases: cell-based
[1] = tested on: Pasteurella multocida PM 6391 (ATCC 43137, reference strain); conditions: Pasteurella multocida PM 6391
Experimental: (§1) The Minimum inhibitory concentrations (MIC) of compounds according to the invention for a number of veterinary bacterial pathogens were determined by the broth-microdilution method according to CLSI document VET01-A4.
(§2) Microdilution trays containing a doubling dilution series of the test compound were used for the tests. The MIC results were interpreted according to the CLSI documents VET01-S3. The lowest concentration of compound at which no visible growth (i.e. no turbidity) detected by the unaided eye was recorded as the MIC.
(§3) The Minimum inhibitory concentrations (MIC) of compounds according to the invention were determined by the broth-microdilution method according to CLSI document VET01-A4.
(§4) Microdilution trays containing a doubling dilution series of the test compound were used for the tests.
(§5) The MIC results were interpreted according to the CLSI documents VET01-S3. The lowest concentration of compound at which no visible growth (i.e. no turbidity) detected by the unaided eye was recorded as the MIC.

[2] = tested on: Mannheimia haemolytica MH 10720 (154, BRD field isolate); conditions: Mannheimia haemolytica MH 10720
Experimental: as §1, §2, §3, §4, §5

[3] = tested on: Mannheimia haemolytica MH 6374 (ATCC 33396, reference strain); conditions: Mannheimia haemolytica MH 6374; for MIC: read-out: MIC MH 6374
Experimental: as §1, §2, §3, §4, §5

[4] = tested on: Mannheimia haemolytica MH 6357 (M7/2, reference strain, cattle infection strain); conditions: Mannheimia haemolytica MH 6357; for MIC: read-out: MIC MH 6357
Experimental: as §1, §2, §3, §4, §5

[5] = tested on: Pasteurella multocida PM 6267 (P 2225 (L386), reference strain, mouse infection strain); conditions: Pasteurella multocida PM 6267
Experimental: as §1, §2, §3, §4, §5

[6] = tested on: Mannheimia haemolytica MH 12587 (1071, BRD field isolate, macrolide-resistance: erm+, E+); conditions: Mannheimia haemolytica MH 12587, macrolide-resistant
Experimental: as §1, §2, §3, §4, §5

[7] = tested on: Pasteurella multocida PM 12080 (IV102277-0093, BRD field isolate); conditions: Pasteurella multocida PM 12080
Experimental: as §1, §2, §3, §4, §5

[8] = tested on: Mannheimia haemolytica MH 13093 (XB0472-6014.1, BRD field isolate)
Experimental: as §1, §2

SMILES: C#CCNCc1ccc(C#Cc2ccc(C(=O)N[C@H](C(=O)NO)[C@@H](C)O)cc2)cc1 [C. 469]
- MIC PM 6391 [1]: <=0.1 μM
- MIC MH 10720 [2]: <=0.1 μM
- MIC MH 6374 [3]: <=0.1 μM
- MIC [4]: 0.2 µM (≈ 0.0811 µg/mL)
- MIC PM 6267 [5]: <=0.1 μM
- MIC MH 12587 [6]: 0.4 µM (≈ 0.162 µg/mL)
- MIC PM 12080 [7]: <=0.1 μM
- MIC [8]: 0.4 µM (≈ 0.162 µg/mL)

SMILES: CC(O)C(NC(=O)c1ccc(C#CC#CC=CCNC2CC2)cc1)C(=O)NO (stereo not shown) [Compound 444]
- MIC PM 6391 [1]: <=0.1 μM
- MIC MH 10720 [2]: <=0.1 μM
- MIC [3]: 0.8 µM (≈ 0.305 µg/mL)
- MIC [4]: 0.4 µM (≈ 0.153 µg/mL)
- MIC PM 6267 [5]: <=0.1 μM
- MIC MH 12587 [6]: 1.6 µM (≈ 0.61 µg/mL)
- MIC PM 12080 [7]: <=0.1 μM
- MIC [8]: 1.6 µM (≈ 0.61 µg/mL)

SMILES: CC(O)C(NC(=O)c1ccc(C#CC#CC=CCN2CCC(c3ccccc3)CC2)cc1)C(=O)NO (stereo not shown) [Compound 448]
- MIC PM 6391 [1]: <=0.1 μM
- MIC MH 10720 [2]: <=0.1 μM
- MIC [3]: 0.4 µM (≈ 0.194 µg/mL)
- MIC [4]: 0.8 µM (≈ 0.388 µg/mL)
- MIC PM 6267 [5]: <=0.1 μM
- MIC MH 12587 [6]: 1.6 µM (≈ 0.777 µg/mL)
- MIC PM 12080 [7]: <=0.1 μM
- MIC [8]: 1.6 µM (≈ 0.777 µg/mL)

SMILES: CC(O)C(NC(=O)c1ccc(C#CC#CC=CCN(C)Cc2ccccc2)cc1)C(=O)NO (stereo not shown) [Compound 452]
- MIC PM 6391 [1]: <=0.1 μM
- MIC [3]: 0.4 µM (≈ 0.178 µg/mL)
- MIC [4]: 0.2 µM (≈ 0.0891 µg/mL)
- MIC PM 6267 [5]: <=0.1 μM
- MIC MH 12587 [6]: 0.8 µM (≈ 0.356 µg/mL)
- MIC PM 12080 [7]: <=0.1 μM
- MIC [8]: 0.8 µM (≈ 0.356 µg/mL)

SMILES: CC(O)C(NC(=O)c1ccc(C#CC#CC=CCNCc2ccc(Cl)cc2)cc1)C(=O)NO (stereo not shown) [Compound 453]
- MIC PM 6391 [1]: <=0.1 μM
- MIC MH 10720 [2]: <=0.1 μM
- MIC [3]: 0.4 µM (≈ 0.186 µg/mL)
- MIC [4]: 1.6 µM (≈ 0.745 µg/mL)
- MIC PM 6267 [5]: <=0.1 μM
- MIC MH 12587 [6]: 1.6 µM (≈ 0.745 µg/mL)
- MIC PM 12080 [7]: <=0.1 μM
- MIC [8]: 1.6 µM (≈ 0.745 µg/mL)

SMILES: CC(O)C(NC(=O)c1ccc(C#CC#CC=CCNCc2cccnc2)cc1)C(=O)NO (stereo not shown) [Compound 460]
- MIC PM 6391 [1]: <=0.1 μM
- MIC [3]: 0.8 µM (≈ 0.346 µg/mL)
- MIC [4]: 0.8 µM (≈ 0.346 µg/mL)
- MIC PM 6267 [5]: <=0.1 μM
- MIC MH 12587 [6]: 1.6 µM (≈ 0.692 µg/mL)
- MIC PM 12080 [7]: <=0.1 μM
- MIC [8]: 1.6 µM (≈ 0.692 µg/mL)

SMILES: CC(O)C(NC(=O)c1ccc(C#CC#CC=CCNCc2ccnc(Cl)c2)cc1)C(=O)NO (stereo not shown) [Compound 461]
- MIC PM 6391 [1]: <=0.1 μM
- MIC MH 10720 [2]: <=0.1 μM
- MIC [3]: 0.4 µM (≈ 0.187 µg/mL)
- MIC [4]: 0.4 µM (≈ 0.187 µg/mL)
- MIC PM 6267 [5]: <=0.1 μM
- MIC MH 12587 [6]: 1.6 µM (≈ 0.747 µg/mL)
- MIC PM 12080 [7]: <=0.1 μM
- MIC [8]: 1.6 µM (≈ 0.747 µg/mL)

SMILES: CC(O)C(NC(=O)c1ccc(C#CC#CC=CCNCc2cccs2)cc1)C(=O)NO (stereo not shown) [Compound 464]
- MIC PM 6391 [1]: <=0.1 μM
- MIC MH 10720 [2]: <=0.1 μM
- MIC [3]: 0.2 µM (≈ 0.0875 µg/mL)
- MIC [4]: 0.4 µM (≈ 0.175 µg/mL)
- MIC PM 6267 [5]: <=0.1 μM
- MIC MH 12587 [6]: 0.8 µM (≈ 0.35 µg/mL)
- MIC PM 12080 [7]: <=0.1 μM
- MIC [8]: 0.8 µM (≈ 0.35 µg/mL)

SMILES: C[C@@H](O)[C@H](NC(=O)c1ccc(C#Cc2ccc(CN3CC=CC3)cc2)cc1)C(=O)NO [Compound 468]
- MIC PM 6391 [1]: <=0.1 μM
- MIC MH 10720 [2]: <=0.1 μM
- MIC MH 6374 [3]: <=0.1 μM
- MIC MH 6357 [4]: <=0.1 μM
- MIC PM 6267 [5]: <=0.1 μM
- MIC MH 12587 [6]: 0.4 µM (≈ 0.168 µg/mL)
- MIC PM 12080 [7]: <=0.1 μM
- MIC [8]: 0.4 µM (≈ 0.168 µg/mL)

SMILES: CSCCNCc1ccc(C#Cc2ccc(C(=O)N[C@H](C(=O)NO)[C@@H](C)O)cc2)cc1 [Compound 472]
- MIC PM 6391 [1]: <=0.1 μM
- MIC MH 10720 [2]: <=0.1 μM
- MIC [3]: 0.8 µM (≈ 0.353 µg/mL)
- MIC [4]: 0.4 µM (≈ 0.177 µg/mL)
- MIC PM 6267 [5]: <=0.1 μM
- MIC MH 12587 [6]: 1.6 µM (≈ 0.706 µg/mL)
- MIC PM 12080 [7]: <=0.1 μM
- MIC [8]: 1.6 µM (≈ 0.706 µg/mL)

SMILES: Cc1cnc(CNCc2ccc(C#Cc3ccc(C(=O)N[C@H](C(=O)NO)[C@@H](C)O)cc3)cc2)o1 [Compound 474]
- MIC PM 6391 [1]: <=0.1 μM
- MIC MH 10720 [2]: <=0.1 μM
- MIC [3]: 0.4 µM (≈ 0.185 µg/mL)
- MIC [4]: 0.2 µM (≈ 0.0925 µg/mL)
- MIC PM 6267 [5]: <=0.1 μM
- MIC MH 12587 [6]: 0.8 µM (≈ 0.37 µg/mL)
- MIC PM 12080 [7]: <=0.1 μM
- MIC [8]: 0.8 µM (≈ 0.37 µg/mL)

SMILES: C[C@@H](O)[C@H](NC(=O)c1ccc(C#Cc2ccc(CNCc3ccc(F)cc3)cc2)cc1)C(=O)NO [Compound 475]
- MIC PM 6391 [1]: <=0.1 μM
- MIC [3]: 0.4 µM (≈ 0.19 µg/mL)
- MIC [4]: 0.2 µM (≈ 0.0951 µg/mL)
- MIC PM 6267 [5]: <=0.1 μM
- MIC MH 12587 [6]: 0.8 µM (≈ 0.38 µg/mL)
- MIC PM 12080 [7]: <=0.1 μM
- MIC [8]: 0.8 µM (≈ 0.38 µg/mL)

SMILES: C=C(C)CNCc1ccc(C#Cc2ccc(C(=O)N[C@H](C(=O)NO)[C@@H](C)O)cc2)s1 [Compound 476]
- MIC PM 6391 [1]: <=0.1 μM
- MIC MH 10720 [2]: <=0.1 μM
- MIC MH 6374 [3]: <=0.1 μM
- MIC [4]: 0.2 µM (≈ 0.0855 µg/mL)
- MIC PM 6267 [5]: <=0.1 μM
- MIC MH 12587 [6]: 0.8 µM (≈ 0.342 µg/mL)
- MIC PM 12080 [7]: <=0.1 μM
- MIC [8]: 0.4 µM (≈ 0.171 µg/mL)

SMILES: C[C@@H](O)[C@H](NC(=O)c1ccc(C#Cc2ccc(CNCC(F)(F)F)s2)cc1)C(=O)NO [Compound 477]
- MIC PM 6391 [1]: <=0.1 μM
- MIC MH 10720 [2]: <=0.1 μM
- MIC [3]: 0.2 µM (≈ 0.0911 µg/mL)
- MIC MH 6357 [4]: <=0.1 μM
- MIC PM 6267 [5]: <=0.1 μM
- MIC MH 12587 [6]: 0.4 µM (≈ 0.182 µg/mL)
- MIC PM 12080 [7]: <=0.1 μM
- MIC [8]: 0.4 µM (≈ 0.182 µg/mL)

SMILES: C[C@@H](O)[C@H](NC(=O)c1ccc(C#Cc2ccc(CN3CC=CC3)s2)cc1)C(=O)NO [Compound 478]
- MIC PM 6391 [1]: <=0.1 μM
- MIC MH 10720 [2]: <=0.1 μM
- MIC MH 6374 [3]: <=0.1 μM
- MIC MH 6357 [4]: <=0.1 μM
- MIC PM 6267 [5]: <=0.1 μM
- MIC MH 12587 [6]: 0.4 µM (≈ 0.17 µg/mL)
- MIC PM 12080 [7]: <=0.1 μM
- MIC [8]: 0.2 µM (≈ 0.0851 µg/mL)

SMILES: C#CCNCc1ccc(C#Cc2ccc(C(=O)N[C@H](C(=O)NO)[C@@H](C)O)cc2)cn1 [Compound 490]
- MIC PM 6391 [1]: <=0.1 μM
- MIC MH 10720 [2]: <=0.1 μM
- MIC [3]: 0.8 µM (≈ 0.325 µg/mL)
- MIC [4]: 0.4 µM (≈ 0.163 µg/mL)
- MIC MH 12587 [6]: 1.6 µM (≈ 0.65 µg/mL)
- MIC PM 12080 [7]: <=0.1 μM
- MIC [8]: 1.6 µM (≈ 0.65 µg/mL)
